These results are taken from patent US9518038B2, “Condensation product of theanine derivative and carboxylic acid coumarin derivative, its intermediate, preparation method and use thereof” (SHANDONG YINGDONG YINGHAO BIOTECHNOLOGY, INC., priority 2012, dated 2016).

Test [1] deals with human brain tumor cells Daoy. Briefly: MTT growth inhibition, Daoy cells. It counts as cell-based. Particulars: Homo sapiens, 72 h after treatment, read-out: Drug concentration (IC50) at which 50% cancer cells survived. An excerpt: Cell lines and cell culture: human lung cancer cells A549 and H460, human breast cancer cells MCF-7 and MDA-MB-231, human gastric cancer cells BGC-823, human prostate cancer cells PC-3, human chronic leukemia cells K562, human lymphoma cells U937, human liver cancer cells SMMC7721 and HepG2, human colon cancer cells HT29, human pancreatic cancer cells PANC-1 and BxPC3, human cervical cancer Hela cell lines, human brain tumor cells Daoy, human neuroma cells D54 and human oral epidermoid cancer cells KBV200 line with strong drug resistance, mouse melanoma cells B16, and highly metastatic Lewis lung cancer cell lines were purchased from American Type Culture Collection of the U.S. These cells were cultured with DMEM and RPMI-1640 culture solutions separately.
The procedure was as follows:
(1) 0.25% trypsin was used to digest cancer cells in a logarithmic growth phase to prepare a single-cell suspension, the concentration of cells was adjusted to 5×10^4/mL, and the adjusted suspension was inoculated into a 96-well culture plate with 100 μl per well;
(2) The culture plate was transferred into a 37° C. incubator with a saturated humidity and 5% of CO2 and cultured for 24 h; the compounds and the intermediates thereof obtained in embodiments 1-7 and the compound as represented by formula (IIIa) or the positive control anti-cancer drug with the concentration of 1-1000 μM/L were added to enable the final concentration to be 0.1-1500 μM/L. Control wells (only added with 200 μl of cell suspension) and drug-free blank control wells (containing the solvent of 0.01% DMSO) were set, each group included 8 wells, and the plate was placed into the 37° C. incubator with saturated humidity and 5% of CO2 for culturing;
(3) The 96-well plate was taken out at 48 h and 72 h after dosing, the original culture medium was carefully removed by suction, 100 μl of serum-free DMEM culture medium and 10 μl of MTT (5 mg/mL) solution were added in each well. The plate was continuously cultured for another 4 h and then the culture was terminated;
(4) The supernatant in the wells was carefully removed by suction, each well was added with 150 μl of DMSO and shaked at room temperature for 10-15 min to fully dissolve crystals.
(5) Colorimetric analysis: the wavelength was selected as 570 nm, the light absorbance (A value) of each well was determined on the microplate reader and the results were recorded; the experiment was repeated for three times;
(6) the experimental results were calculated according to the following formula: relative survival rate=(A value of each experimental group/A value of cell control group)×100%
Calculation of median-effect concentration (IC50, namely the drug concentration at which the inhibition rate is 50%, also known as half inhibitory concentration):
IC50 of the detected component was calculated by using a regression equation.

Test [2] has as its system human liver cancer cells HepG2. Briefly: MTT growth inhibition, HepG2 cells. It counts as cell-based. Conditions: 72 h after treatment, read-out: Drug concentration (IC50) at which 50% cancer cells survived.
Test [3] concerns human pancreatic cancer cells PANC-1 xenograft. Briefly: In-vivo growth of PANC-1 xenografts in nude mice. More on the design: species or system BALB/c nude mice. Conditions: Mus musculus, ip, vs DMSO solvent control, read-out: Curative effect (inhibition rate %) of tumor weight; for inhibition in vivo at 60 mg/kg: 60 mg/kg intraperitoneal once a day; for inhibition in vivo at 90 mg/kg: 90 mg/kg intraperitoneal once a day. The procedure: (§1) RPMI1640 and DMEM culture solutions: Hyclone Company; inactivated fetal bovine serum: Hyclone Company, preserved at −20° C.; trypsin: Amersco Company; and 0.4% trypan blue: Sigma Company;
(§2) (3) Observation of growth of tumors in nude mice: the activities (including food intake, traits of urine and stool, mental state and the like) of the nude mice and the tumor growth time and growth situation of the transplanted tumors were observed every day, the body weight and the size of the tumors were measured once every 2-3 days. The long diameter a and the short diameter b (mm) of each tumor were measured by a vernier caliper to calculate the volume, wherein the volume V=π1/2·ab^2 (mm^3);
(§3) (4) sacrifice of animals: the mice were anesthetized and photoed after treatment experiments; the nude mice were sacrificed by breaking neck, the tumor tissues were stripped under sterile conditions and the weight of the tumors was weighed; and the effects of the drugs on pathology and toxicity of the various organs and tissues were detected.

In test [4] the test system is human cervical cancer cells Hela xenograft. Briefly: In-vivo growth of Hela xenografts in nude mice. More on the design: species or system BALB/c nude mice. Particulars: Mus musculus, ip, vs DMSO solvent control, read-out: Curative effect (inhibition rate %) of tumor weight; for inhibition in vivo at 60 mg/kg: 60 mg/kg intraperitoneal once a day; for inhibition in vivo at 90 mg/kg: 90 mg/kg intraperitoneal once a day. The procedure: as §1, §2, §3

The test system of another test is HDAC4. Briefly: HDAC4 enzyme activity in nuclear extracts of human tumor xenografts of treated mice. Particulars: second value of the pair HDAC3 and HDAC4, SAHA 25 mg/kg. On the technique in general: A xenograft is tissue or cells of one species grown in another, often human tumour cells in immunodeficient mice.
A further test concerns p53. Briefly: Western Blotting, increase of p53 level. Format: cell-based. Particulars: liver cancer cells, Lewis lung cancer cells and other cancer cell lines and tumor tissue protein lysates, 48 h treatment, read-out: Effective concentration to increase p53 by 50%. From the text:
(§4) Antibodies: primary antibodies of VEGFR, EGFR, c-Met, K-Ras, H-Ras, Akt, NF-κB, Cyclin D1, ER-alpha, Dvl-1, Dvl-2, Dvl-3, MMP-9, MMP2, β-catenin, Bcl-2, Bax, p53, p21, E-cadherin and Caspase3 protein, purchased from American Cell Signaling Technology Company and Santa Cruz Technology Company; and H3 acetylation, H4 acetylation and HDAC (HDAC3, HDAC4 and the like) Antibody Sample Kits, purchased from Cell Signaling Technology Company of the U.S.
(§5) (3) polyacrylamide gel electrophoresis (SDS-PAGE): an equal amount of protein lysate sample was used to separate protein, film transfer, and blocking, treated with appropriate primary antibodies and secondary antibodies in sequence, and the film was washed, then the color was developed with ECL kit, and a blot protein band was detected by exposure of an X-ray film; and a Gel-Pro Analyzer was used for quantitative analysis of gray degree, optical density value of the control group and the drug treatment group in various concentration were respectively compared with that of internal reference, the obtained ratios were respectively compared with the control group, and the protein expression level was semi-quantified.
(Immunoblotting shows a protein as a band on a membrane.)

The next test deals with HDAC3. Briefly: HDAC3 enzyme activity in nuclear extracts of human tumor xenografts of treated mice. Conditions: first value of the pair HDAC3 and HDAC4, SAHA 25 mg/kg.
In another test the test system is EGFR. Briefly: Western Blotting, EGFR level. Format: cell-based. Particulars: human liver cancer cells, Lewis lung cancer cells and other cancer cell lines and tumor tissues, read-out: Effective concentration (IC50) for inhibition of EGFR.
Text: as §4, §5

Another test has as its system Cyclin D1. Briefly: Western Blotting, Cyclin D1 level. Format: cell-based. Conditions: human liver cancer cells, Lewis lung cancer cells and other cancer cell lines and tumor tissues, read-out: Effective concentration (IC50) for inhibition of Cyclin D1.
Text: as §4, §5

The test system of the next test is K-Ras. Briefly: Western Blotting, K-Ras level. Particulars: human liver cancer cells, Lewis lung cancer cells and other cancer cell lines and tumor tissues, read-out: Effective concentration (IC50) for inhibition of K-Ras. It counts as cell-based.
Text: as §4, §5

Marks after values point to notes of the source that are not given here.

Method for HDAC3: (§6) For the detection of the effect of the drugs on enzyme activity of EZH2 and HDAC of in-vivo tumors, the tumors were separately excised after 6 h of medication, total proteins and nucleoproteins were extracted separately to detect and analyze the activity of the enzyme.
(§7) (2) 50 μl of diluted sample solution was added into each reaction well, the plate was sealed with a plate-sealing film and reacted at room temperature for 30 min;
(§8) (3) the plate-sealing film was carefully peeled off, the liquid was removed, dried, 150 μl of washing liquid was added into each well, stood for 30 s, then the liquid was removed, repeated twice, and dried;
(§9) (4) 2 μl of HDAC enzyme or tumor tissue nuclear extracts was respectively uniformly mixed with 28 μl of diluted sample solution, added into the wells, the plate was sealed with the plate-sealing film and reacted at 37° C. for 60 min;
(§10) (5) the plate was washed for three times, wherein the operation was the same as that in (3); and a diluted antibody capture working solution was added into each reaction well according to 50 μl/well and reacted on a shaking bed at room temperature for 60 min;
(§11) (6) the plate was washed for four times, wherein the operation was the same as that in (3);
(§12) (7) a diluted antibody detection working solution was added into each reaction well according to 50 μl/well and reacted at room temperature for 30 min;
(§13) (8) the plate was washed for five times, wherein the operation was the same as that in (3);
(§14) a color developing agent was added according to 100 μl/well, and performed dark development for 2-10 min;
(§15) (9) 50 μl of stop solution was added into each well for stopping the reaction when the color in the well with a standard product turned blue with medium intensity, the color immediately turned yellow from blue after the addition;
(§16) (10) the light absorbance (OD value) of each well was measured in sequence at the wavelength of 450 nm; wherein the measurement should be performed within 15 min after addition of the stop solution; and
Method for HDAC4: as §6, §7, §8, §9, §10, §11, §12, §13, §14, §15, §16

As for `CCNC(=O)CC[C@H](N)C(=O)OC` [Compound IIa, theanine methyl ester], the values for the IC50 in test [1] and in test [2] were 400 µM and 600 µM, respectively. Moreover, the inhibition in vivo at 60 mg/kg in [3] is 33.4%; in [4] it was 38.7%. Further, the inhibition in vivo at 90 mg/kg turned out to be 37.7% in test [3] and 38.7% in [4].

In the case of `CCNC(=O)CCC(NC(=O)c1cc2ccccc2oc1=O)C(=O)OCC` (centres unmarked) [Compound Ib, ethyl 5-ethylamino-5-oxo-2-(2-oxo-2H-benzopyran-3-carboxamido)pentanoate], the “decrease of HDAC4 enzyme activity/inhibition rate” value with HDAC4 (A549 tumor grown in vivo) is listed as 62%*(A549)-; in the test with HDAC4 (SMMC7721 tumor grown in vivo), 61%*(SMMC-7721). Besides, the IC50 was 135 µM in test [1]; 225 µM in test [2]; < 120 µM with EGFR; < 120 µM in the test on Cyclin D1; < 75 µM in the test with K-Ras. In the test with p53, the EC50 was < 120 µM. The “decrease of HDAC3 enzyme activity/inhibition rate” value with HDAC3 (A549 tumor grown in vivo) is listed as 65%* and; with HDAC3 (SMMC7721 tumor grown in vivo), 63%* and. The inhibition in vivo at 60 mg/kg in test [3] is 54.6%; in [4] it was 53.9%. Further, the inhibition in vivo at 90 mg/kg stood at 65.9% in test [3] and 63.8% in test [4].

`CCNC(=O)CCC(NC(=O)c1cc2cc(F)ccc2oc1=O)C(=O)OCC` (stereo in doubt) [Compound Ie, (R)-2-(6-F-2-oxo-2H-benzopyran-3-carboxamido)-5-ethylamino-5-oxo-pentanoic acid ethyl ester]: the “decrease of HDAC4 enzyme activity/inhibition rate” value in the test with HDAC4 (A549 tumor grown in vivo) is listed as 72%*(A549)-; with HDAC4 (MCF7 tumor grown in vivo), 67%*(MCF7); in the test on HDAC4 (MDA-MB231 tumor grown in vivo), 62%*(MDA-MB231); in the test with HDAC4 (SMMC7721 tumor grown in vivo), 65%*(SMMC7721);. For the same compound, the IC50 in test [1] is 210 µM; in test [2], 230 µM; in the test with EGFR, < 110 µM; with Cyclin D1 it was < 160 µM; with K-Ras it was < 60 µM. Further, the EC50 in the test with p53 was < 100 µM. In addition, the “decrease of HDAC3 enzyme activity/inhibition rate” value in the test on HDAC3 (A549 tumor grown in vivo) is 70%* and; with HDAC3 (MCF7 tumor grown in vivo) it was 65%* and; with HDAC3 (MDA-MB231 tumor grown in vivo), 60%* and; in the test on HDAC3 (SMMC7721 tumor grown in vivo) it was 63%* and. Besides, the inhibition in vivo at 60 mg/kg in test [3] came out at 56.6%; in test [4], 60.7%. The figures for the inhibition in vivo at 90 mg/kg in test [3] and in [4] were 64.6% and 70.5%, respectively.

For the compound `CCNC(=O)CC[C@@H](NC(=O)c1cc2cc(Br)cc(Br)c2oc1=O)C(=O)OCC` [Compound Ih, (R)-2-(6,8-dibromo-2-oxo-2H-benzopyran-3-carboxamido)-5-ethylamino-5-oxo-pentanoic ethyl ester], the “decrease of HDAC4 enzyme activity/inhibition rate” value is reported as 59%*(A549)- in the test with HDAC4 (A549 tumor grown in vivo), 66%*(MCF7) in the test with HDAC4 (MCF7 tumor grown in vivo), 64%*(MDA-MB231) with HDAC4 (MDA-MB231 tumor grown in vivo) and 62%*(SMMC7721); in the test with HDAC4 (SMMC7721 tumor grown in vivo). Besides, the IC50 was 121 µM in test [1]; 56 µM in [2]; < 100 µM in the test on EGFR; < 70 µM in the test with Cyclin D1; < 65 µM with K-Ras. Further, the EC50 in the test with p53 was < 70 µM. The “decrease of HDAC3 enzyme activity/inhibition rate” value in the test with HDAC3 (A549 tumor grown in vivo) is on record as 57%* and; in the test with HDAC3 (MCF7 tumor grown in vivo) it was 64%* and; in the test with HDAC3 (MDA-MB231 tumor grown in vivo), 62%* and; in the test on HDAC3 (SMMC7721 tumor grown in vivo), 60%* and. In addition, the results for the inhibition in vivo at 60 mg/kg in test [3] and in test [4] were 51.3% and 62.9%, respectively. Further, the inhibition in vivo at 90 mg/kg is 67.3% in test [3] and 72.6% in test [4].

Take `CCNC(=O)CC[C@@H](NC(=O)c1cc2cc(Cl)cc(Cl)c2oc1=O)C(=O)OCC` [Compound Ig, (R)-2-(6,8-dichloro-2-oxo-2H-benzopyran-3-carboxamido)-5-ethylamino-5-oxo-pentanoic ethyl ester]: the “decrease of HDAC4 enzyme activity/inhibition rate” value is recorded as 63%*(A549)- with HDAC4 (A549 tumor grown in vivo), 68%*(MCF7) in the test with HDAC4 (MCF7 tumor grown in vivo), 66%*(MDA-MB231) in the test on HDAC4 (MDA-MB231 tumor grown in vivo) and 64%*(SMMC7721); with HDAC4 (SMMC7721 tumor grown in vivo). Moreover, the IC50 in test [1] is 110 µM; in test [2], 46 µM; with EGFR, < 100 µM; in the test on Cyclin D1, < 70 µM; in the test with K-Ras it was < 65 µM. Also, the EC50 in the test with p53 is < 70 µM. Moreover, the “decrease of HDAC3 enzyme activity/inhibition rate” value with HDAC3 (A549 tumor grown in vivo) is 61%* and; in the test with HDAC3 (MCF7 tumor grown in vivo), 66%* and; in the test with HDAC3 (MDA-MB231 tumor grown in vivo), 64%* and; with HDAC3 (SMMC7721 tumor grown in vivo) it was 62%* and. Besides, the inhibition in vivo at 60 mg/kg in test [3] was 55.6%; in test [4], 56.7%. In addition, the inhibition in vivo at 90 mg/kg was found to be 68.9% in [3] and 70.3% in test [4].

For `CCNC(=O)CC[C@H](N)C(=O)OCC` [Compound IIb, theanine ethyl ester], the IC50 in [1] is 400 µM; in test [2], 300 µM. Further, the inhibition in vivo at 60 mg/kg worked out at 32.3% in test [3] and 41.7% in [4]. Further, the inhibition in vivo at 90 mg/kg in [3] stood at 34.8%; in test [4], 41.7%.
